The results in this text go back to patent US20220380319A1 (Bial - R&D Investments, S.A., priority 2019, published 2022).

Series [1] addresses T1, acid ceramidase (Homo sapiens, UniProt Q13510).
T1 construct: Cell lysates overexpressing acid ceramidase were used as the enzyme source; expressed in transfected cells
T1 sequence (Q13510 22-395): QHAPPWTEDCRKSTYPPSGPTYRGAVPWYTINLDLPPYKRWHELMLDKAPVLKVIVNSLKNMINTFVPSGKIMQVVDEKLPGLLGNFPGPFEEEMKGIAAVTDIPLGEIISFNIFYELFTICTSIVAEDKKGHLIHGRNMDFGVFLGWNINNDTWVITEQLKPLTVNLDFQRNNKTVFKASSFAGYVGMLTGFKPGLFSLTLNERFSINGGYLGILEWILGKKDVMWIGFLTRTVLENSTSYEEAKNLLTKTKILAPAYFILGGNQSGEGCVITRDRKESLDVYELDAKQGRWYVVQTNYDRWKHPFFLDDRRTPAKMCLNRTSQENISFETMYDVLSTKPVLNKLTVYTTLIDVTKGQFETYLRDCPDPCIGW
Nature of the series: Acid ceramidase inhibition, biochemical fluorescent assay with cell lysates overexpressing acid ceramidase, substrate Rbm14-12. Particulars: substrate Rbm14-12 6.3 μM, pH 4.5, 1 hr preincubation at RT. Summed up:
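IC50 derived by four-parameter fitting of fluorescence (ex360 nm, em446 nm) produced after 1 hr in methanol/NaIO4/glycine stop buffer, pH 10.6. Reaction: 6.3 μM Rbm14-12, 1 hr RT, following 1 hr RT compound preincubation with 10 μg overexpressing-cell lysate protein in pH 4.5 NaAC/NaCl buffer.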

A short description of series [2]: Compound solubility in water.

The IC50 is the midpoint of a concentration-inhibition curve. Low readings indicate higher potency, high ones lower potency. A word on the solubility: it is how much of the substance goes into solution per volume.

The structures appear in SMILES notation. Converted amounts (≈) assume the structure as drawn. Some results are limits rather than exact numbers.

Take `O=C(NCCOc1ccccc1)n1cnc2cc(C(F)(F)F)ccc21` [Example 46a, N-(2-Phenoxyethyl)-5-(trifluoromethyl)-1H-benzo[d]imidazole-1-carboxamide]: the IC50 in series [1] is less than 200 nM. In series [2], this compound returned a solubility of 0.4 µg/mL (≈ 1.15 µM).
For `O=C(NCCOc1ccccc1)n1cnc2ccc(C(F)(F)F)cc21` [Example 46b, N-(2-phenoxyethyl)-6-(trifluoromethyl)-1H-benzo[d]imidazole-1-carboxamide] the same measures were less than 200 nM and 0.3 µg/mL (≈ 0.859 µM).
`O=C(NCCOc1ccc(F)cc1)n1cnc2ccccc21` [Example 47, N-(2-(4-Fluorophenoxy)ethyl)-1H-benzo[d]imidazole-1-carboxamide] returned a half-inhibitory concentration (IC50) in series [1] of less than 200 nM. Further, the solubility in series [2] came to 4.3 µg/mL (≈ 14.4 µM).
`CC(C)OCCNC(=O)n1cnc2ccccc21` [Example 48, N-(2-iso-Propoxyethyl)-1H-benzo[d]imidazole-1-carboxamide] showed an IC50 in series [1] of 200 to 1000 nM. This compound also had a solubility in series [2] of 15.4 µg/mL (≈ 62.3 µM).
In series [1], `CCCCNC(=O)n1cnc2cc(C(F)(F)F)ccc21` [Example 49a, N-Butyl-5-(trifluoromethyl)-1H-benzo[d]imidazole-1-carboxamide] yielded an IC50 of less than 200 nM. Further, the solubility in series [2] was determined as 15.6 µg/mL (≈ 54.7 µM).
On to `CCCCNC(=O)n1cnc2ccc(C(F)(F)F)cc21` [Example 49b, N-butyl-6-(trifluoromethyl)-1H-benzo[d]imidazole-1-carboxamide], for which, in series [1], the IC50 was less than 200 nM. In addition, the concentration in solution in series [2] (solubility) came to 12.6 µg/mL (≈ 44.2 µM).
In series [1], `COc1ccnc2c1ncn2C(=O)NCCc1ccccc1` [Example 50, 7-Methoxy-N-phenethyl-3H-imidazo[4,5-b]pyridine-3-carboxamide] returned an IC50 of 200 to 1000 nM. Also, the solubility in series [2] stood at 9.5 µg/mL (≈ 32.1 µM).
In turn, `CCCCNC(=O)n1cnc2cc(OC)ccc21` [Example 51a, N-Butyl-5-methoxy-1H-benzo[d]imidazole-1-carboxamide] returned an IC50 in series [1] of less than 200 nM. The concentration in solution in series [2] (solubility) was 7.2 µg/mL (≈ 29.1 µM).
In the case of `CCCCNC(=O)n1cnc2ccc(OC)cc21` [Example 51b, N-butyl-6-methoxy-1H-benzo[d]imidazole-1-carboxamide], the IC50 in series [1] was less than 200 nM. This compound yielded a solubility in series [2] of 8.5 µg/mL (≈ 34.4 µM).
In series [1], `CCCCNC(=O)n1cnc2c(OC)cccc21` [Example 52, N-Butyl-4-methoxy-1H-benzo[d]imidazole-1-carboxamide] came in with an IC50 of less than 200 nM. Moreover, in series [2], the solubility was found to be 23.2 µg/mL (≈ 93.8 µM).
Compound `O=C(NCCc1ccccc1)n1cnc2ncc(C(F)(F)F)cc21` [Example 53, N-Phenethyl-6-(trifluoromethyl)-1H-imidazo[4,5-b]pyridine-1-carboxamide] came in with an IC50 in series [1] of less than 200 nM. This compound registered a solubility in series [2] of 4.7 µg/mL (≈ 14.1 µM).
`CN1CCC(c2cc(C(F)(F)F)cc3c2ncn3C(=O)NCCc2ccccc2)CC1` [Example 54, 4-(1-Methylpiperidin-4-yl)-N-phenethyl-6-(trifluoromethyl)-1H-benzo[d]imidazole-1-carboxamide]: in series [1], the IC50 was less than 200 nM. Moreover, the solubility in series [2] is 22.7 µg/mL (≈ 52.7 µM).
Regarding `CN1CCC(c2c(C(F)(F)F)ccc3c2ncn3C(=O)NCCc2ccccc2)CC1` [Example 55, 4-(1-Methylpiperidin-4-yl)-N-phenethyl-5-(trifluoromethyl)-1H-benzo[d]imidazole-1-carboxamide], the IC50 in series [1] was less than 200 nM. Further, the solubility in series [2] was 13 µg/mL (≈ 30.2 µM).
Taken in the same sequence, the figures for `CCCCNC(=O)n1cnc2c(C3CCN(C)CC3)c(C(F)(F)F)ccc21` [Example 56, N-Butyl-4-(1-methylpiperidin-4-yl)-5-(trifluoromethyl)-1H-benzo[d]imidazole-1-carboxamide] were more than 1000 nM and 28.1 µg/mL (≈ 73.5 µM).
`CCCCNC(=O)n1cnc2c(C3CCN(C)CC3)cc(C(F)(F)F)cc21` [Example 57, N-Butyl-4-(1-methylpiperidin-4-yl)-6-(trifluoromethyl)-1H-benzo[d]imidazole-1-carboxamide]: in series [1], the IC50 was less than 200 nM. The compound further gave a solubility in series [2] of 24.1 µg/mL (≈ 63 µM).
Consider `CCCCNC(=O)n1cnc2c(C3CCN(C)CC3)cc(OC)cc21` [Example 58, N-Butyl-6-methoxy-4-(1-methylpiperidin-4-yl)-1H-benzo[d]imidazole-1-carboxamide], for which the IC50 in series [1] was 200 to 1000 nM. Further, the concentration in solution in series [2] (solubility) came to 28.1 µg/mL (≈ 81.6 µM).
Turning to `O=C(NCCCc1ccccc1)n1cnc2ncccc21` [Example 59, N-(3-Phenylpropyl)-1H-imidazo[4,5-b]pyridine-1-carboxamide], the IC50 in series [1] was less than 200 nM. In series [2], this compound returned a solubility of 24.6 µg/mL (≈ 87.8 µM).
In the case of `COc1nc2ncccc2n1C(=O)NCCCCc1ccccc1` [Example 61, 2-Methoxy-N-(4-phenylbutyl)-1H-imidazo[4,5-b]pyridine-1-carboxamide], the IC50 in series [1] was less than 200 nM. For the same compound, the solubility in series [2] worked out at 1 µg/mL (≈ 3.08 µM).
Take `O=C(NCCOc1ccccc1)n1cnc2ncccc21` [Example 62, N-(2-Phenoxyethyl)-1H-imidazo[4,5-b]pyridine-1-carboxamide]: in series [1], the IC50 is less than 200 nM. For the same compound, the solubility in series [2] was 26.6 µg/mL (≈ 94.2 µM).
For the compound `O=C(NCCc1ccccc1)n1cnc2cc(F)ccc21` [Example 63, 5-Fluoro-N-phenethyl-1H-benzo[d]imidazole-1-carboxamide], the IC50 in series [1] is less than 200 nM. For the same compound, the concentration in solution in series [2] (solubility) was 2.6 µg/mL (≈ 9.18 µM).
`O=C(NCCc1ccccc1)n1cnc2c(F)cccc21` [Example 64, 4-Fluoro-N-phenethyl-1H-benzo[d]imidazole-1-carboxamide] yielded an IC50 in series [1] of less than 200 nM. This compound also returned a solubility in series [2] of 3.6 µg/mL (≈ 12.7 µM).
`O=C(NCCc1ccccc1)n1cnc2ccc(C(F)(F)F)nc21` [Example 66a, N-Phenethyl-5-(trifluoromethyl)-3H-imidazo[4,5-b]pyridine-3-carboxamide]: in series [1], the IC50 was less than 200 nM. Moreover, in series [2], the solubility was 6 µg/mL (≈ 17.9 µM).
For the compound `O=C(NCCc1ccccc1)n1cnc2nc(C(F)(F)F)ccc21` [Example 66b, N-phenethyl-5-(trifluoromethyl)-1H-imidazo[4,5-b]pyridine-1-carboxamide], the IC50 in series [1] is less than 200 nM. Besides, in series [2], the solubility came out at 12.9 µg/mL (≈ 38.6 µM).
For the compound `CCCCNC(=O)n1cnc2cc(F)ccc21` [Example 67, N-Butyl-5-fluoro-1H-benzo[d]imidazole-1-carboxamide], the IC50 in series [1] was less than 200 nM. For the same compound, the concentration in solution in series [2] (solubility) was 22.5 µg/mL (≈ 95.6 µM).
Taken in the same sequence, the figures for `CCCCNC(=O)n1cnc2c(F)cccc21` [Example 68, N-Butyl-4-fluoro-1H-benzo[d]imidazole-1-carboxamide] were less than 200 nM and 20.6 µg/mL (≈ 87.6 µM).
In the case of `CCCCNC(=O)n1cnc2ccc(F)cc21` [Example 69, N-Butyl-6-fluoro-1H-benzo[d]imidazole-1-carboxamide], the IC50 in series [1] fell in the range of 200 to 1000 nM. The concentration in solution in series [2] (solubility) was 20.2 µg/mL (≈ 85.9 µM).
For `CCCCNC(=O)n1cnc2ccc(OC(F)(F)F)cc21` [Example 70a, N-Butyl-6-(trifluoromethoxy)-1H-benzo[d]imidazole-1-carboxamide], in series [1], the IC50 was less than 200 nM. In series [2], this compound showed a solubility of 9.3 µg/mL (≈ 30.9 µM).
Turning to `CCCCNC(=O)n1cnc2cc(OC(F)(F)F)ccc21` [Example 70b, N-butyl-5-(trifluoromethoxy)-1H-benzo[d]imidazole-1-carboxamide], the IC50 in series [1] is less than 200 nM. Also, the solubility in series [2] came out at 9.6 µg/mL (≈ 31.9 µM).
The compound `COc1cccc2c1ncn2C(=O)NCCOc1ccccc1` [Example 71, 4-Methoxy-N-(2-phenoxyethyl)-1H-benzo[d]imidazole-1-carboxamide] returned an IC50 in series [1] of less than 200 nM. This compound also yielded a solubility in series [2] of 9.1 µg/mL (≈ 29.2 µM).
